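Assay format: 96-well plates, 48-hour exposure. Here, GI50 denotes the concentration required for 50% inhibition of growth. The concentration for full growth arrest is given as TGI.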
Key:
Experiment in all cases: growth of human tumour cells (NCI), 48 h
RPMI-8226 leukemia = system: RPMI-8226 leukemia
U251 CNS = system: U251 CNS
MOLT-4 leukemia = system: MOLT-4 leukemia
UACC-257 melanoma = system: UACC-257 melanoma
OVCAR-3 ovarian = system: OVCAR-3 ovarian
MALME-3M melanoma = system: MALME-3M melanoma
SR leukemia = system: SR leukemia
SK-MEL-5 melanoma = system: SK-MEL-5 melanoma
SK-MEL-2 melanoma = system: SK-MEL-2 melanoma
MCF7 breast = system: MCF7 breast
MDA-MB-231 breast = system: MDA-MB-231 breast
NCI-H460 lung = system: NCI-H460 lung
MDA-MB-435 = system: MDA-MB-435
SN12C renal = system: SN12C renal
T-47D breast = system: T-47D breast
CAKI-1 renal = system: CAKI-1 renal
PC-3 prostate = system: PC-3 prostate
A549 NSCLC = system: A549 NSCLC
HT29 colon = system: HT29 colon
HOP-62 NSCLC = system: HOP-62 NSCLC
SF-295 CNS = system: SF-295 CNS
COLO 205 colon = system: COLO 205 colon
SK-OV-3 ovarian = system: SK-OV-3 ovarian
DU-145 prostate = system: DU-145 prostate
HL-60(TB) leukemia = system: HL-60(TB) leukemia
BT-549 breast = system: BT-549 breast
NCI-H226 lung = system: NCI-H226 lung
786-0 renal = system: 786-0 renal
SK-MEL-28 melanoma = system: SK-MEL-28 melanoma
A498 renal = system: A498 renal
HCC-2998 colon = system: HCC-2998 colon
UO-31 renal = system: UO-31 renal
HCT-116 colon = system: HCT-116 colon
TK-10 renal = system: TK-10 renal
M14 melanoma = system: M14 melanoma
HS 578T breast = system: HS 578T breast
ACHN renal = system: ACHN renal
LOX IMVI melanoma = system: LOX IMVI melanoma
OVCAR-4 ovarian = system: OVCAR-4 ovarian
IGROV1 ovarian = system: IGROV1 ovarian
HCT-15 colon = system: HCT-15 colon
SNB-75 CNS = system: SNB-75 CNS
NCI-H522 lung = system: NCI-H522 lung
K-562 leukemia = system: K-562 leukemia
CCRF-CEM leukemia = system: CCRF-CEM leukemia
SF-268 CNS = system: SF-268 CNS
NCI/ADR-RES ovarian = system: NCI/ADR-RES ovarian
SF-539 CNS = system: SF-539 CNS
SNB-19 CNS = system: SNB-19 CNS
KM12 colon = system: KM12 colon
RXF 393 renal = system: RXF 393 renal
SW-620 colon = system: SW-620 colon
OVCAR-8 ovarian = system: OVCAR-8 ovarian
UACC-62 melanoma = system: UACC-62 melanoma
NCI-H23 lung = system: NCI-H23 lung
OVCAR-5 ovarian = system: OVCAR-5 ovarian
HOP-92 NSCLC = system: HOP-92 NSCLC

SMILES: O=C1NC(=O)C(c2c[nH]c3ccccc23)=C1c1c[nH]c2ccccc12
- GI50 (RPMI-8226 leukemia): 9.48 µM
- TGI (RPMI-8226 leukemia): > 25 µM
- GI50 (U251 CNS): 10.2 µM
- TGI (U251 CNS): > 25 µM
- GI50 (MOLT-4 leukemia): 9.55 µM
- TGI (MOLT-4 leukemia): > 25 µM
- GI50 (UACC-257 melanoma): 15.6 µM
- TGI (UACC-257 melanoma): > 25 µM
- GI50 (OVCAR-3 ovarian): 17.5 µM
- TGI (OVCAR-3 ovarian): > 25 µM
- GI50 (MALME-3M melanoma): > 14.7 µM
- TGI (MALME-3M melanoma): > 25 µM
- GI50 (SR leukemia): 6.87 µM
- TGI (SR leukemia): > 25 µM
- GI50 (SK-MEL-5 melanoma): 5.96 µM
- TGI (SK-MEL-5 melanoma): 20.2 µM
- GI50 (SK-MEL-2 melanoma): 12 µM
- TGI (SK-MEL-2 melanoma): > 25 µM
- GI50 (MCF7 breast): 9.32 µM
- TGI (MCF7 breast): > 25 µM
- GI50 (MDA-MB-231 breast): 12.6 µM
- TGI (MDA-MB-231 breast): > 25 µM
- GI50 (NCI-H460 lung): 10.6 µM
- TGI (NCI-H460 lung): > 25 µM
- GI50 (MDA-MB-435): 6.86 µM
- TGI (MDA-MB-435): > 25 µM
- GI50 (SN12C renal): 16.3 µM
- TGI (SN12C renal): > 25 µM
- GI50 (T-47D breast): 10.2 µM
- TGI (T-47D breast): > 25 µM
- GI50 (CAKI-1 renal): 7.37 µM
- TGI (CAKI-1 renal): > 25 µM
- GI50 (PC-3 prostate): 10.2 µM
- TGI (PC-3 prostate): > 25 µM
- GI50 (A549 NSCLC): 10.7 µM
- TGI (A549 NSCLC): > 25 µM
- GI50 (HT29 colon): 11.2 µM
- TGI (HT29 colon): > 25 µM
- GI50 (HOP-62 NSCLC): 16.5 µM
- TGI (HOP-62 NSCLC): > 25 µM
- GI50 (SF-295 CNS): 13.3 µM
- TGI (SF-295 CNS): > 25 µM
- GI50 (COLO 205 colon): 9.18 µM
- TGI (COLO 205 colon): > 25 µM
- GI50 (SK-OV-3 ovarian): 13.5 µM
- TGI (SK-OV-3 ovarian): > 25 µM
- GI50 (DU-145 prostate): > 21.2 µM
- TGI (DU-145 prostate): > 25 µM
- GI50 (HL-60(TB) leukemia): 11.1 µM
- TGI (HL-60(TB) leukemia): > 25 µM
- GI50 (BT-549 breast): 10.3 µM
- TGI (BT-549 breast): > 25 µM
- GI50 (NCI-H226 lung): 3.83 µM
- TGI (NCI-H226 lung): > 25 µM
- GI50 (786-0 renal): > 19.1 µM
- TGI (786-0 renal): > 25 µM
- GI50 (SK-MEL-28 melanoma): 15.1 µM
- TGI (SK-MEL-28 melanoma): > 25 µM
- GI50 (A498 renal): 3.34 µM
- TGI (A498 renal): > 25 µM
- GI50 (HCC-2998 colon): 16.2 µM
- TGI (HCC-2998 colon): > 25 µM
- GI50 (UO-31 renal): 3.08 µM
- TGI (UO-31 renal): > 25 µM
- GI50 (HCT-116 colon): 9.33 µM
- TGI (HCT-116 colon): > 25 µM
- GI50 (TK-10 renal): 19.2 µM
- TGI (TK-10 renal): > 25 µM
- GI50 (M14 melanoma): 10.9 µM
- TGI (M14 melanoma): > 25 µM
- GI50 (HS 578T breast): 5.56 µM
- TGI (HS 578T breast): > 25 µM
- GI50 (ACHN renal): 9.25 µM
- TGI (ACHN renal): > 25 µM
- GI50 (LOX IMVI melanoma): 5.31 µM
- TGI (LOX IMVI melanoma): > 25 µM
- GI50 (OVCAR-4 ovarian): 10.9 µM
- TGI (OVCAR-4 ovarian): > 25 µM
- GI50 (IGROV1 ovarian): > 20.9 µM
- TGI (IGROV1 ovarian): > 25 µM
- GI50 (HCT-15 colon): 8.32 µM
- TGI (HCT-15 colon): > 25 µM
- GI50 (SNB-75 CNS): 4.11 µM
- TGI (SNB-75 CNS): > 25 µM
- GI50 (NCI-H522 lung): 8.11 µM
- TGI (NCI-H522 lung): > 25 µM
- GI50 (K-562 leukemia): 11.1 µM
- TGI (K-562 leukemia): > 25 µM
- GI50 (CCRF-CEM leukemia): 10.5 µM
- TGI (CCRF-CEM leukemia): > 25 µM
- GI50 (SF-268 CNS): 16.3 µM
- TGI (SF-268 CNS): > 25 µM
- GI50 (NCI/ADR-RES ovarian): 12.8 µM
- TGI (NCI/ADR-RES ovarian): > 25 µM
- GI50 (SF-539 CNS): 9.73 µM
- TGI (SF-539 CNS): > 25 µM
- GI50 (SNB-19 CNS): > 25 µM
- TGI (SNB-19 CNS): > 25 µM
- GI50 (KM12 colon): 9.3 µM
- TGI (KM12 colon): > 25 µM
- GI50 (RXF 393 renal): 4.57 µM
- TGI (RXF 393 renal): 24.3 µM
- GI50 (SW-620 colon): 13.3 µM
- TGI (SW-620 colon): > 25 µM
- GI50 (OVCAR-8 ovarian): 15.8 µM
- TGI (OVCAR-8 ovarian): > 25 µM
- GI50 (UACC-62 melanoma): 12.1 µM
- TGI (UACC-62 melanoma): > 25 µM
- GI50 (NCI-H23 lung): 14.7 µM
- TGI (NCI-H23 lung): > 25 µM
- GI50 (OVCAR-5 ovarian): > 25 µM
- TGI (OVCAR-5 ovarian): > 25 µM
- GI50 (HOP-92 NSCLC): 5.72 µM
- TGI (HOP-92 NSCLC): > 25 µM

Reference: PubChem BioAssay (NCI)
